Results: ChEMBL document CHEMBL1126846, “Two new unsaturated fatty acid ethanolamides in brain that bind to the cannabinoid receptor” (J Med Chem, 1993)

Molecular target: Cannabinoid receptor (Mus musculus, UniProt P47746+P47936)
Assay: Ability to displace [3H]HU-243 binding to cannabinoid receptor in synaptosomal membrane
Assay type: cell membranes

CCCCC/C=C\C/C=C\C/C=C\CCCCCCCC(=O)NCCO
Ki: 53.4 nM

CCCCC/C=C\C/C=C\C/C=C\C/C=C\CCCCCC(=O)NCCO
Ki: 34.4 nM
